Laboratory results from paper PMC10693084, “Novel 8-Methoxycoumarin-3-Carboxamides with potent anticancer activity against liver cancer via targeting caspase-3/7 and β-tubulin polymerization” (BMC Chemistry, 2023).

What was measured:
caspase-3/7 = test: Caspase-3/7 green flow cytometric assay in HepG2 cells; assay type: cell-based, human; conditions: HepG2 cells treated with compound
Text: Caspase-3 is a cysteine-aspartic protease protein that facilitates the enzymatic cleavage of specific target proteins. It consists of two subunits, specifically a 12-kDa subunit and a 17-kDa subunit, which are characterized by the presence of three and five thiol functions, respectively. […] The crucial involvement of the terminal caspase-3/7 activation is observed in the initiation of apoptosis and subsequent cell demise in neoplastic cells. To gain more insight into the apoptotic mode of action for compound 5, we assessed the active caspase-3/7 levels in HepG2 cells utilizing a green flow cytometric assay. […] Compared to the control group of untreated HepG2 cells, there was a remarkable 5.6-fold rise in the levels of active Caspase-3/7 upon treatment with compound 5. […] These findings provide valuable insights into the potential mechanism of action of compound 5 as an anti-cancer agent. Activation of Caspase-3/7 is a pivotal step in the apoptotic pathway, leading to the programmed destruction of cancer cells. […]
The HepG2 cell line was subjected to treatment with compound 5, and subsequently, an analysis was conducted using the Cell Event caspase-3/7 green flow assay. […] Subsequently, the cells were assessed utilizing the BD FACS CALIBER flow cytometer.

HepG2 cells = test: Annexin V-FITC/PI apoptosis screening; assay type: cell-based, human; conditions: HepG2, IC50 concentration, 24 h
Text: Next, we have conducted Annexin V-FITC/PI screening to further investigate the impact of compound 5 on the growth of HepG2 cells and comprehensively analyze programmed cell death. The Annexin V-FITC/PI assay is a widely used method to differentiate between apoptotic and necrotic cells based on their membrane integrity and phospholipid exposure. […] The results from the Annexin V-FITC/PI screening provide crucial insights into the mode of action of compound 5 in inducing cell death in HepG2 cells. Annexin V-FITC is a marker that binds specifically to phosphatidylserine (PS), a phospholipid that becomes externalized on the cell membrane during early apoptosis. Propidium iodide (PI) is a dye that can penetrate cells with compromised membranes, typically found in late-stage apoptosis or necrosis. […] This is important since apoptosis is a highly regulated process, and its induction is a favorable outcome for anti-cancer therapies, as opposed to necrosis, which is often associated with cell death caused by injury or external damage. Overall, these findings from the Annexin V-FITC/PI screening support the ability of compound 5 to induce apoptosis in HepG2 cells and its lack of significant induction of necrosis reinforce its potential as a promising candidate for anti-cancer therapy.
Apoptosis detection in HepG-2 cells was conducted utilizing the BioVision® annexin‐V‐FITC apoptosis detection kit in accordance with the instructions provided by the manufacturer. The quantification of apoptosis was performed using a FACS Calibur flow cytometer, with a wavelength of 488 nm. In a concise manner, a total of 1–5 × 10^5 cells were obtained through the process of centrifugation. The cells were subsequently exposed to compound 5 at concentrations corresponding to its IC50 value for a duration of 24 h. Following this treatment, the cells were resuspended in a binding buffer solution with a volume of 500 μl. The addition of Annexin-V-FITC and PI was performed. Subsequently, the specimens were subjected to incubation at ambient temperature for a duration of 5 min, while being shielded from light. The analysis of Annexin-V-FITC binding was conducted utilizing a dedicated signal detector.

[1] = tested on: human liver carcinoma HepG2 cells; test: MTT cytotoxicity assay against HepG2 cells; assay type: cell-based; conditions: HepG2 cells
Experimental: To assess the antitumor properties of these compounds, we utilized the 3-(4,5-dimethylthiazol-2-yl)-2,5-diphenyl tetrazolium bromide (MTT) colorimetric assay, a widely used method to evaluate cell viability and cytotoxicity.
Following the incubation period, the cells were subjected to various concentrations of the prepared molecules and subsequently incubated for a duration of 24 h. […] Subsequently, a volume of 100 μL of dimethyl sulfoxide (DMSO) was introduced into each well in order to facilitate the dissolution of the purple formazan that had been generated. The quantification of the color intensity of the formazan product, which serves as an indicator of the cellular growth condition, is performed by employing an ELISA plate reader set at a wavelength of 570 nm. The experimental conditions were implemented with a minimum of three replicates, and the experiments were conducted on at least three separate occasions.

Q: How did the “rise in levels of active Caspase-3/7 vs untreated HepG2 cells” value (caspase-3/7) turn out when `COc1ccc(Br)c2cc(C(N)=O)c(=O)oc12` [Compound 5, 5-Bromo-8-methoxycoumarin-3-carboxamide] was run?
A: The value was 5.6 fold.

Q: What about the “fold increase of early apoptosis vs control” value (HepG2 cells) of the same compound?
A: Its value is 42 fold.

Q: And the “fold increase of late-stage apoptosis vs control” value (HepG2 cells)?
A: Its value is 100 fold.

Q: What about the “fold increase of necrosis vs untreated” value (HepG2 cells) of the same compound?
A: The value was “threefold”.

Q: And the “fold increase of programmed cell death vs untreated” value (HepG2 cells)?
A: Its value is 22 fold.

Q: And the “percentage of cells in late-stage apoptosis” value (HepG2 cells; control 0.22%)?
A: Its value is 22.16%.

Q: What about the “percentage of cells undergoing early apoptosis” value (HepG2 cells; control 0.46%) of the same compound?
A: Its value is 19.51%.

Q: And the “percentage of cells undergoing necrosis” value (HepG2 cells; untreated 1.4%)?
A: Its value is 4.21%.

Q: And the “total percentage of programmed cell death” value (HepG2 cells; untreated 2.08%)?
A: Its value is 45.88%.

Q: And the “Structure–activity summary of cytotoxic activity (Fig. 4B)” value [1]?
A: The value was “improved activity”.

Q: And the IC50 ([1]; Homo sapiens, HepG2, 24 h, MTT, 24 h treatment)?
A: Its IC50 is 0.9 ± 0.05 µM.
